Measured values as given in patent US9266878B2, “Phosphatidylinositol 3-kinase inhibitors” (Gilead Calistoga LLC, priority 2012, dated 2016).

Assays:
Experiment in all cases: Enzymatic activity of PI3K isoforms, TR-FRET assay (PIP3 formation)
Type in all cases: biochemical
PI3Kα = PI3Kα (Homo sapiens (Human), UniProt P42336); conditions: bound given in uM
Experimental: (§1) Enzymatic activity of the class I PI3K isoforms was measured using a time-resolved fluorescence resonance energy transfer (TR-FRET) assay that monitors formation of the product 3,4,5-inositol triphosphate molecule (PIP3), as it competes with fluorescently labeled PIP3 for binding to the GRP-1 pleckstrin homology domain protein. An increase in […] product results in a decrease in TR-FRET signal as the labeled fluorophore is displaced from the GRP-1 protein binding site.
(§2) Class I PI3K isoforms were expressed and purified as heterodimeric recombinant proteins. All assay reagents and buffers for the TR-FRET assay were purchased from Millipore. […] After an assay reaction time of 30 minutes at 25° C., reactions were terminated with a final concentration of 10 mM EDTA, 10 nM labeled-PIP3, and 35 nM Europium labeled GRP-1 detector protein before reading TR-FRET on an Envision plate reader (Ex: 340 nm; Em: 615/665 nm; 100 μs delay and 500 μs read window).
(§3) IC50 are reported in units of nM. These assays generally produced results within 3-fold of the reported mean.

PI3Kδ = PI3Kδ (Homo sapiens (Human), UniProt O00329); conditions: bound given in nM
Experimental: as §1, §2, §3

PI3Kβ = PI3Kβ (Homo sapiens (Human), UniProt P42338)
Experimental: as §1
(§4) Class I PI3K isoforms were expressed and purified as heterodimeric recombinant proteins. All assay reagents and buffers for the TR-FRET assay were purchased from Millipore.
(§5) IC50 are reported in units of nM.

PI3Kγ = PI3Kγ (Homo sapiens (Human), UniProt P48736)
Experimental: as §1, §4, §5

Chain of PI3Kγ (P48736 whole entry): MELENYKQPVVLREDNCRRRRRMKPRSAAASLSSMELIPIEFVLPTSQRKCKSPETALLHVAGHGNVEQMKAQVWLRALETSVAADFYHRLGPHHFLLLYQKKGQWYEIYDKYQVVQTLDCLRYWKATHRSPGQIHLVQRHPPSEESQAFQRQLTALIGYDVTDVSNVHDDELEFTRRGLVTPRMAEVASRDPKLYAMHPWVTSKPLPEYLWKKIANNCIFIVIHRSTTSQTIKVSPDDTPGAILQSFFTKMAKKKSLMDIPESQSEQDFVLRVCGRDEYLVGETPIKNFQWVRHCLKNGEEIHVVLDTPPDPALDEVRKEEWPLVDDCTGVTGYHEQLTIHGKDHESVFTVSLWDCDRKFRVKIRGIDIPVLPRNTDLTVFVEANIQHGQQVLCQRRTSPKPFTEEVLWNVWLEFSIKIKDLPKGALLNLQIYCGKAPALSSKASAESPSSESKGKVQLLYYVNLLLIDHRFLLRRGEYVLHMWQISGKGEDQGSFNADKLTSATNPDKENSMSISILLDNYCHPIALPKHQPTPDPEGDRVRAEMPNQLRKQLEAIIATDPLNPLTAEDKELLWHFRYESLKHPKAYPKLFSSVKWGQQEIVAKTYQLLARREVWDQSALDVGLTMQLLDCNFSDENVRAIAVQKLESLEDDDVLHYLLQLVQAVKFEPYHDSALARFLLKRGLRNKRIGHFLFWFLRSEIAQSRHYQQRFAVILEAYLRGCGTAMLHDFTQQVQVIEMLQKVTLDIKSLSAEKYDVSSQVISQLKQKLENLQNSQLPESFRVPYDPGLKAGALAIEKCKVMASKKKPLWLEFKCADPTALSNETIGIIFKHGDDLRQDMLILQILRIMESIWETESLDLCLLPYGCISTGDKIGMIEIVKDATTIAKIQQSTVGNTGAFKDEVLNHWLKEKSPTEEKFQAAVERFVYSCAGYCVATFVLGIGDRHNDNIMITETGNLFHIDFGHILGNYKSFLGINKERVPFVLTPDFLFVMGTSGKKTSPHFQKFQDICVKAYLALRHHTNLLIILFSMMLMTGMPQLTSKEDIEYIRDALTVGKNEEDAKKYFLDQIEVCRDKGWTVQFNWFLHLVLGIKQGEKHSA
Chain of PI3Kγ (Q8WYR1 whole entry partner): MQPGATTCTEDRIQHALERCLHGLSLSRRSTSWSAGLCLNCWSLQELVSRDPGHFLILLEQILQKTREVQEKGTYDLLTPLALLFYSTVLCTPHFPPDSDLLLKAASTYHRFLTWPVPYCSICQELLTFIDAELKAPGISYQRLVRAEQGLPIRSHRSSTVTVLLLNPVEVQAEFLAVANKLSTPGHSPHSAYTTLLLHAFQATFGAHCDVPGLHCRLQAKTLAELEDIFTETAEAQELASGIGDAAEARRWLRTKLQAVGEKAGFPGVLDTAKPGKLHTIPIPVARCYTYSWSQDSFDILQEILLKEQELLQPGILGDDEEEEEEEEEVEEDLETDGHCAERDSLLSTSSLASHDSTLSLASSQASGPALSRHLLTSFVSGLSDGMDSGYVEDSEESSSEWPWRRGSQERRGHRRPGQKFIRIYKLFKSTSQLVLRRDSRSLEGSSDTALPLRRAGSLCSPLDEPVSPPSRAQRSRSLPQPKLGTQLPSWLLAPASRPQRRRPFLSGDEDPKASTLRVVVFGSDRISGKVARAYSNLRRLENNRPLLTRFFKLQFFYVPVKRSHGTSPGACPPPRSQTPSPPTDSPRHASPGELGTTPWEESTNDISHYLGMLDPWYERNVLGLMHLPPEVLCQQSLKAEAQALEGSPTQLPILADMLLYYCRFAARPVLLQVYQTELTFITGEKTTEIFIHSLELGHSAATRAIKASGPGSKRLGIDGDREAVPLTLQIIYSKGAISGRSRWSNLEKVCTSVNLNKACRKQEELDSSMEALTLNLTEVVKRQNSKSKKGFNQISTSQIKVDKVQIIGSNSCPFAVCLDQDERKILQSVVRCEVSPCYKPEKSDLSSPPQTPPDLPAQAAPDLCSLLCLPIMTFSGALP
Chain of PI3Kα (P42336 whole entry, the tested form may be a part, canonical isoform): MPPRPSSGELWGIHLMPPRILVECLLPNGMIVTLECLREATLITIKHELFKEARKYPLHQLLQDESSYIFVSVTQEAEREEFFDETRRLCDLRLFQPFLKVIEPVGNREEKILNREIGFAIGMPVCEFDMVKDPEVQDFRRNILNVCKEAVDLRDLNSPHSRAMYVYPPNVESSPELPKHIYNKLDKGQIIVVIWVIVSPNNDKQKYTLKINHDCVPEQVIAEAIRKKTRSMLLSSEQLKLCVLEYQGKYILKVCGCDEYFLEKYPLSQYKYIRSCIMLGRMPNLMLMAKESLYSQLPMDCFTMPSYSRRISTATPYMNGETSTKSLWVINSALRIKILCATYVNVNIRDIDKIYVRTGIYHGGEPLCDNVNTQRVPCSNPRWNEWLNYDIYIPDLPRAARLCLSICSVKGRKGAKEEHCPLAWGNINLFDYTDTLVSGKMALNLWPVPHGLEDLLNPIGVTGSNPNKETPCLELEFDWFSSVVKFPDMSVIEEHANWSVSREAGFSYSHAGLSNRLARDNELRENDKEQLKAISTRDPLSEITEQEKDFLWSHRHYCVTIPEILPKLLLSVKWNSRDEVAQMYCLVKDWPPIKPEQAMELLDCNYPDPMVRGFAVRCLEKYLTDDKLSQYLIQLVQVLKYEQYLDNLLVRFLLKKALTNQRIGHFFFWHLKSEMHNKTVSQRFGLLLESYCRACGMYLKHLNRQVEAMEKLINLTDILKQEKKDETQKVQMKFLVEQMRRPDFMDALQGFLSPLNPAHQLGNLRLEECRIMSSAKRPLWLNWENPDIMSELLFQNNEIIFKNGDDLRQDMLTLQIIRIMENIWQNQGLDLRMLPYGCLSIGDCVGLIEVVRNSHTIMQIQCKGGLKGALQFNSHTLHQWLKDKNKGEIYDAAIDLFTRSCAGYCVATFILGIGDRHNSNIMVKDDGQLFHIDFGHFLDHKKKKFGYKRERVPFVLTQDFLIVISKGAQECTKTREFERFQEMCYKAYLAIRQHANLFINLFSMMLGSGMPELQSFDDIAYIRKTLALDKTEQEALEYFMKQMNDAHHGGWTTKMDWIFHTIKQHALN
Chain of PI3Kα (P27986 whole entry partner, the tested form may be a part, canonical isoform): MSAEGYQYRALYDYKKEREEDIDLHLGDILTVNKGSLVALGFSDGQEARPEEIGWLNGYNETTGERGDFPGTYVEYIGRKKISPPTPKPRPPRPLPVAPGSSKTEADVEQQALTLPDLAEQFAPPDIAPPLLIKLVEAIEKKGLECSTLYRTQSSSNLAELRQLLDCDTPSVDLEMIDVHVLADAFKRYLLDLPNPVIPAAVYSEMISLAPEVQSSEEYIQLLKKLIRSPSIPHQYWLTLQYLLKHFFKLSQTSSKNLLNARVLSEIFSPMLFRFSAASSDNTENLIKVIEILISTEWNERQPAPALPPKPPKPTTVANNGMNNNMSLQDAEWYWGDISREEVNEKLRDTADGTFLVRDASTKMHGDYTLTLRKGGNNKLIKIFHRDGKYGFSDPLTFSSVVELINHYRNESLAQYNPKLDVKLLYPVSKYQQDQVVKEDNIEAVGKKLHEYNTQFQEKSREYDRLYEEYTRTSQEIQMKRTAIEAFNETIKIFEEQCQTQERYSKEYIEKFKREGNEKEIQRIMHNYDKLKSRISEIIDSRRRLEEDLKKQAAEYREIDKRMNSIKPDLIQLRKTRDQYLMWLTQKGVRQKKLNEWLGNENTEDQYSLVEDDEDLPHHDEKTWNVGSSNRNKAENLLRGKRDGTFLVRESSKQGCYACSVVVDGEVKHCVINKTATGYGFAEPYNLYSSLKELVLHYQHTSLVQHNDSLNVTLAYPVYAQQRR
Chain of PI3Kβ (P42338 whole entry): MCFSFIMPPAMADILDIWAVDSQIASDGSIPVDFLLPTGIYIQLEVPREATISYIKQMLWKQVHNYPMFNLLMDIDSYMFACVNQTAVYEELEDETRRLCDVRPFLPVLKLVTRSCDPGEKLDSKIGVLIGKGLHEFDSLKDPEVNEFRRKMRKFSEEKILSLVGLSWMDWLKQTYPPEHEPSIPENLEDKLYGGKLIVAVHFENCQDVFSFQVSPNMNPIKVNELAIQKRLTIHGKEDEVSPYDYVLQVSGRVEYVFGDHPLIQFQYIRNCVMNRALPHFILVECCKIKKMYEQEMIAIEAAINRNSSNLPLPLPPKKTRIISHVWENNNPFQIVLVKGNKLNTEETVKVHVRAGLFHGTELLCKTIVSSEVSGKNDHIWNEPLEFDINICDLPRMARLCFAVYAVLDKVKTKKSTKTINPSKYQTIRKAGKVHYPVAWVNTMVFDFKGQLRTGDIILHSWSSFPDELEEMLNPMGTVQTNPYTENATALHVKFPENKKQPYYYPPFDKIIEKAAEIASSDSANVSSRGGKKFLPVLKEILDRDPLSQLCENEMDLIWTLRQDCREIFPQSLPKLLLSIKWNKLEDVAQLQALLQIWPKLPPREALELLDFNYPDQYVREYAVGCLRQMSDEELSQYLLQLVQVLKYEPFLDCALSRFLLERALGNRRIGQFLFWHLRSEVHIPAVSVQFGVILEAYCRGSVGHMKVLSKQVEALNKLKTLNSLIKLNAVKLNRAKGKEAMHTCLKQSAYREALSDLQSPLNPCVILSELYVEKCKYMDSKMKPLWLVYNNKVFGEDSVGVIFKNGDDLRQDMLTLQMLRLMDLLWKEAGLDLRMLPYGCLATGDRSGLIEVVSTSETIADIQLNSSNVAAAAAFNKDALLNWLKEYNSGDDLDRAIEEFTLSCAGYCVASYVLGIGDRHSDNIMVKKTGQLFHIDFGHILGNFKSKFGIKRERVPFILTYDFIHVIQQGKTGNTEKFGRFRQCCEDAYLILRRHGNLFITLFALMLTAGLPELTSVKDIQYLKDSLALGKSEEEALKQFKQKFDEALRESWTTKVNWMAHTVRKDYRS
Chain of PI3Kβ (P27986 whole entry partner): as the sequence (P27986 whole entry partner, the tested form may be a part, canonical isoform) above

Compound | IC50 (PI3Kα) [µM] | IC50 (PI3Kδ) [nM] | IC50 (PI3Kβ; bound given in uM) [µM] | IC50 (PI3Kβ; bound given in nM) [µM] | IC50 (PI3Kγ; bound given in uM) [µM] | IC50 (PI3Kγ; bound given in nM) [µM]
C[C@H](Nc1ncnc(N)c1C#Cc1cccc(N)n1)c1nc2cccc(Cl)c2c(=O)n1-c1cc(F)cc(F)c1 [Compound 15a, (S)-2-(1-(6-amino-5-((6-aminopyridin-2-yl)ethynyl)pyrimidin-4-ylamino)ethyl)-5-chloro-3-(3,5-difluorophenyl)quinazolin-4(3H)-one] | – | < 100 | – | < 0.1 | – | –
C[C@H](Nc1ncnc(N)c1C#Cc1ccc(OC(F)(F)F)cc1)c1nc2cccc(Cl)c2c(=O)n1-c1ccccc1 [Compound 27a, (S)-2-(1-(6-amino-5-((4-(trifluoromethoxy)phenyl)ethynyl)pyrimidin-4-ylamino)ethyl)-5-chloro-3-phenylquinazolin-4(3H)-one] | > 1 | < 100 | > 1 | – | – | –
Cc1cccc2nc([C@H](C)Nc3ncnc(N)c3C#Cc3ccccn3)n(-c3ccccc3)c(=O)c12 [Compound 30a, (S)-2-(1-(6-amino-5-(pyridin-2-ylethynyl)pyrimidin-4-ylamino)ethyl)-5-methyl-3-phenylquinazolin-4(3H)-one] | – | < 100 | – | < 0.1 | – | –
Cc1ccc(F)c2nc([C@H](C)Nc3ncnc(N)c3C#Cc3cnccn3)n(-c3ccccc3)c(=O)c12 [Compound 75a, (S)-2-(1-((6-amino-5-(pyrazin-2-ylethynyl)pyrimidin-4-yl)amino)ethyl)-8-fluoro-5-methyl-3-phenylquinazolin-4(3H)-one] | – | < 100 | – | < 0.1 | – | –
Cc1cccc2nc([C@H](C)Nc3ncnc(N)c3C#Cc3cnccn3)n(-c3ccccc3)c(=O)c12 [Compound 98a, (S)-2-(1-((6-amino-5-(pyrazin-2-ylethynyl)pyrimidin-4-yl)amino)ethyl)-5-methyl-3-phenylquinazolin-4(3H)-one] | – | < 100 | – | < 0.1 | – | –
C[C@H](Nc1ncnc(N)c1C#Cc1ccccc1)c1nc2cccc(S(C)(=O)=O)c2c(=O)n1-c1ccccc1 [Compound 112a, (S)-2-(1-((6-amino-5-(phenylethynyl)pyrimidin-4-yl)amino)ethyl)-5-(methylsulfonyl)-3-phenylquinazolin-4(3H)-one] | – | < 100 | > 1 | – | – | –
C[C@H](Nc1ncnc(N)c1C#Cc1cnccn1)c1nc2cccc(Cl)c2c(=O)n1-c1cccnc1 [Compound 118a, (S)-2-(1-((6-amino-5-(pyrazin-2-ylethynyl)pyrimidin-4-yl)amino)ethyl)-5-chloro-3-(pyridin-3-yl)quinazolin-4(3H)-one] | > 1 | < 100 | – | – | > 1 | –
Cc1cccc2nc([C@H](C)Nc3ncnc(N)c3C#Cc3cnccn3)n(-c3cccnc3)c(=O)c12 [Compound 119a, (S)-2-(1-((6-amino-5-(pyrazin-2-ylethynyl)pyrimidin-4-yl)amino)ethyl)-5-methyl-3-(pyridin-3-yl)quinazolin-4(3H)-one] | > 1 | < 100 | – | – | > 1 | –
C[C@H](Nc1ncnc(N)c1C#Cc1ccc(F)cn1)c1nc2cccc(Cl)c2c(=O)n1N1CCOCC1 [Compound 121a, (S)-2-(1-((6-amino-5-((5-fluoropyridin-2-yl)ethynyl)pyrimidin-4-yl)amino)ethyl)-5-chloro-3-morpholinoquinazolin-4(3H)-one] | > 1 | < 100 | – | – | > 1 | –
COc1cc(F)cc(C#Cc2c(N)ncnc2N[C@@H](C)c2nc3cccc(Cl)c3c(=O)n2N2CCOCC2)c1 [Compound 122a, (S)-2-(1-((6-amino-5-((3-fluoro-5-methoxyphenyl)ethynyl)pyrimidin-4-yl)amino)ethyl)-5-chloro-3-morpholinoquinazolin-4(3H)-one] | > 1 | < 100 | – | – | > 1 | –
C[C@H](Nc1ncnc(N)c1C#Cc1ccc(C(F)(F)F)cn1)c1nc2cccc(Cl)c2c(=O)n1-c1cc(F)cc(F)c1 [Compound 134a, (S)-2-(1-((6-amino-5-((5-(trifluoromethyl)pyridin-2-yl)ethynyl)pyrimidin-4-yl)amino)ethyl)-5-chloro-3-(3,5-difluorophenyl)quinazolin-4(3H)-one] | > 1 | – | > 1 | – | – | –
C[C@H](Nc1ncnc(N)c1C#Cc1ccc(C(N)=O)cn1)c1nc2cccc(Cl)c2c(=O)n1-c1ccccc1 [Compound 135a, (S)-6-((4-amino-6-((1-(5-chloro-4-oxo-3-phenyl-3,4-dihydroquinazolin-2-yl)ethyl)amino)pyrimidin-5-yl)ethynyl)nicotinamide] | > 1 | < 100 | – | – | – | < 0.1
C[C@H](Nc1ncnc(N)c1C#CC1CCCC1)c1nc2cccc(Cl)c2c(=O)n1-c1ccccc1 [Compound 144a, (S)-2-(1-((6-amino-5-(cyclopentylethynyl)pyrimidin-4-yl)amino)ethyl)-5-chloro-3-phenylquinazolin-4(3H)-one] | > 1 | < 100 | – | – | > 1 | –
CC(=O)c1cccnc1C#Cc1c(N)ncnc1N[C@@H](C)c1nc2cccc(Cl)c2c(=O)n1-c1ccccc1 [Compound 152a, (S)-2-(1-((5-((3-acetylpyridin-2-yl)ethynyl)-6-aminopyrimidin-4-yl)amino)ethyl)-5-chloro-3-phenylquinazolin-4(3H)-one] | > 1 | < 100 | – | – | > 1 | –
C[C@H](Nc1ncnc(N)c1C#Cc1cccc(CO)c1)c1nc2cccc(Cl)c2c(=O)n1-c1ccccc1 [Compound 162a, (S)-2-(1-((6-amino-5-((3-(hydroxymethyl)phenyl)ethynyl)pyrimidin-4-yl)amino)ethyl)-5-chloro-3-phenylquinazolin-4(3H)-one] | > 1 | < 100 | – | – | > 1 | –

More lines, now with the values ahead:

IC50 (PI3Kα) [µM] | IC50 (PI3Kδ) [nM] | IC50 (PI3Kβ; bound given in uM) [µM] | IC50 (PI3Kβ; bound given in nM) [µM] | IC50 (PI3Kγ; bound given in uM) [µM] | IC50 (PI3Kγ; bound given in nM) [µM] | Compound
> 1 | < 100 | > 1 | – | – | – | COC(=O)c1ccc(C#Cc2c(N)ncnc2N[C@@H](C)c2nc3cccc(Cl)c3c(=O)n2-c2ccccc2)nc1 [Compound 3a, (S)-methyl 6-((4-amino-6-(1-(5-chloro-4-oxo-3-phenyl-3,4-dihydroquinazolin-2-yl)ethylamino)pyrimidin-5-yl)ethynyl)nicotinate]
> 1 | < 100 | – | < 0.1 | – | – | C[C@H](Nc1ncnc(N)c1C#Cc1cnccn1)c1nc2cccc(Cl)c2c(=O)n1-c1ccccc1 [Compound 16a, (S)-2-(1-(6-amino-5-(pyrazin-2-ylethynyl)pyrimidin-4-ylamino)ethyl)-5-chloro-3-phenylquinazolin-4(3H)-one]
– | < 100 | – | < 0.1 | – | – | C[C@H](Nc1ncnc(N)c1C#Cc1ccccn1)c1nc2cccc(Cl)c2c(=O)n1-c1ccccc1 [Compound 50a, (S)-2-(1-(6-amino-5-(pyridin-2-ylethynyl)pyrimidin-4-ylamino)ethyl)-5-chloro-3-phenylquinazolin-4(3H)-one]
> 1 | < 100 | – | – | – | < 0.1 | Cc1ccc(C#Cc2c(N)ncnc2N[C@@H](C)c2nc3cccc(Cl)c3c(=O)n2-c2ccccc2)nc1 [Compound 133a, (S)-2-(1-((6-amino-5-((5-methylpyridin-2-yl)ethynyl)pyrimidin-4-yl)amino)ethyl)-5-chloro-3-phenylquinazolin-4(3H)-one]
> 1 | < 100 | – | – | > 1 | – | Cc1nc(C#Cc2c(N)ncnc2N[C@@H](C)c2nc3cccc(Cl)c3c(=O)n2-c2ccccc2)ccc1F [Compound 140a, (S)-2-(1-((6-amino-5-((5-fluoro-6-methylpyridin-2-yl)ethynyl)pyrimidin-4-yl)amino)ethyl)-5-chloro-3-phenylquinazolin-4(3H)-one]
– | < 100 | – | < 0.1 | – | – | Cc1ccnc(C#Cc2c(N)ncnc2N[C@@H](C)c2nc3cccc(Cl)c3c(=O)n2-c2ccccc2)c1 [Compound 147a, (S)-2-(1-((6-amino-5-((4-methylpyridin-2-yl)ethynyl)pyrimidin-4-yl)amino)ethyl)-5-chloro-3-phenylquinazolin-4(3H)-one]
> 1 | < 100 | – | – | – | < 0.1 | CCc1ccnc(C#Cc2c(N)ncnc2N[C@@H](C)c2nc3cccc(Cl)c3c(=O)n2-c2ccccc2)c1 [Compound 150a, (S)-2-(1-((6-amino-5-((4-ethylpyridin-2-yl)ethynyl)pyrimidin-4-yl)amino)ethyl)-5-chloro-3-phenylquinazolin-4(3H)-one]
– | < 100 | – | < 0.1 | – | – | C[C@H](Nc1ncnc(N)c1C#Cc1cc(C(N)=O)ccn1)c1nc2cccc(Cl)c2c(=O)n1-c1ccccc1 [Compound 156a, (S)-2-((4-amino-6-((1-(5-chloro-4-oxo-3-phenyl-3,4-dihydroquinazolin-2-yl)ethyl)amino)pyrimidin-5-yl)ethynyl)isonicotinamide]
> 1 | < 100 | – | – | > 1 | – | COC(=O)c1ccnc(C#Cc2c(N)ncnc2N[C@@H](C)c2nc3cccc(Cl)c3c(=O)n2-c2ccccc2)c1 [Compound 158a, (S)-methyl 2-((4-amino-6-((1-(5-chloro-4-oxo-3-phenyl-3,4-dihydroquinazolin-2-yl)ethyl)amino)pyrimidin-5-yl)ethynyl)isonicotinate]
